Experimental data from US20220364179A1, “METHODS AND COMPOSITIONS FOR ASSESSING AND PREDICTING THERAPEUTIC RESPONSE” (Lankenau Institute for Medical Research, priority 2019, published 2022).

How the values were obtained:
mouse tumor models = conditions: cited from earlier work
brain metastases = assay: whole brain radiotherapy with low-dose chloroquine in patients with brain metastases; assay type: in vivo, human; conditions: low-dose chloroquine in continuous cycles one week before and during standard of care irradiation; N=20; P=0.07
[1] = system: metastatic adenocarcinoma of the pancreas; assay: Phase I/II trial NCT02077881: indoximod with gemcitabine plus nab-paclitaxel, responses by IDO2 genotype; assay type: in vivo, human; conditions: for PR + CR (positive response), row % / PR + CR, number of patients: + gemcitabine plus nab-paclitaxel
Method: The treatment protocol was as described in ClinicalTrials.gov Identifier NCT02077881, which was a Phase I/II trial designed to evaluate the combination of the immunotherapeutic agent indoximod (an IDO inhibitor) and the standard of care chemotherapy gemcitabine plus nab-paclitaxel in subjects with metastatic adenocarcinoma of the pancreas. Participants received oral indoximod (600 mg, […], or 1200 mg according to their assigned dose cohort) twice daily for 28 days concurrently with IV Nab-paclitaxel 125 mg/m^2 given intravenously over 30-40 minutes for 3 weeks (days 1, 8 and 15) with 1 week rest, followed by gemcitabine 1000 mg/m^2 given intravenously over 30 minutes for 3 weeks (days 1, 8 and 15) with 1 week rest. All subjects will receive the standard 28-day gemcitabine plus nab-paclitaxel regimen. Twice daily oral indoximod was administered concurrently in continuous 28 day cycles. Patients continued until they experienced disease progression or significant toxicity.
Genotyping to detect the wild-type IDO2 alleles or a polymorphisms in one or both alleles was performed using a protocol as provided in Example 2.
Two-sample tests of independent proportions were performed to compare the percentage of positive responders between two groups. Observed versus expected genotype distributions were compared using one-sample tests of proportions. The significance level was set to 0.05 and all tests were one-sided except for the tests comparing response by sex and the tests comparing observed and expected genotypes. Analyses were performed in Stata/MP 15.1 (StataCorp LP., Texas, USA). See the data in FIG. 6A -6D.

melanoma = melanoma cohort, response to therapy by IDO2 genotype; assay type: in vivo, human
Method: In the melanoma cohort, 84 patients were genotyped with 6 patients returning uncertain results. The remaining 78 patients, including 52 males and 26 females, were treated and analyzed in a similar way to the PDAC patients of Example 3 above. The results of the 46 patients, including 31 males and 15 females, in this cohort that responded positively to IDO and/or other indicated therapies were also analyzed.

rheumatoid arthritis = conditions: mouse model of rheumatoid arthritis; Merlo et al. 2014; cited from earlier work
[2] = Females, all genotypes, no exclusions, Total 40
[3] = Females, excludes (+/p or p/p) uncertain genotype, Total 32
[4] = Males, all genotypes, no exclusions, Total 67
[5] = Males, excludes (+/p or p/p) uncertain genotype, Total 47
[6] = genotype +/+ or +/p, both sexes, Total 56
[7] = genotype +/+ or +/p, females only, Total 22
[8] = genotype +/+ or +/p, males only, Total 34
[9] = genotype +/+, both sexes, excludes uncertain genotype, Total 15
[10] = genotype +/+, females only, excludes uncertain genotype, Total 7
[11] = genotype +/+, males only, excludes uncertain genotype, Total 8
[12] = genotype +/p, both sexes, excludes uncertain genotype, Total 41
[13] = genotype +/p, females only, excludes uncertain genotype, Total 15
[14] = genotype +/p, males only, excludes uncertain genotype, Total 26
[15] = genotype p/p, both sexes, excludes uncertain genotype, Total 23
[16] = genotype p/p, females only, excludes uncertain genotype, Total 10
[17] = genotype p/p, males only, excludes uncertain genotype, Total 13

In the case of `Cn1cc(CC(N)C(=O)O)c2ccccc21` [D, L-1MT], the “effect on efficacy of radiotherapy” value (mouse tumor models) is given as “improve the efficacy of radiotherapy”.

With `CCN(CC)CCCC(C)Nc1ccnc2cc(Cl)ccc12` (stereo not drawn) [chloroquine] the survival outcomes (brain metastases) was “trend in improvement of survival outcomes”.

In the case of `Cn1cc(C[C@H](N)C(=O)O)c2ccccc21` [indoximod, 1-methyl-tryptophan], the “PR + CR (positive response), row %” value [1, 2] is reported as 60.0%, the “PR + CR, number of patients” value [1, 2] is reported as 24 and the “PR + CR (positive response), row %” value [1, 3] is reported as 62.5%. For the same compound, the “PR + CR, number of patients” value [1, 3] was 20, the “PR + CR (positive response), row %” value [1, 4] was 43.3% and the “PR + CR, number of patients” value [1, 4] was 29. The “PR + CR (positive response), row %” value [1, 5] was 51.1%, the “PR + CR, number of patients” value [1, 5] was 24 and the “PR + CR, number of patients” value ([1]; both sexes, excludes (+/p or p/p) uncertain genotype, Total 79) was 44. The “PR + CR (positive response), row %” value ([1]; both sexes, includes uncertain genotype, Total 51) was 35.3%, the “PR + CR, number of patients” value ([1]; genotype (+/p or p/p) or p/p, both sexes, includes uncertain genotype, Total 51) was 18 and the “PR + CR, number of patients” value ([1]; genotype (+/p or p/p) or p/p, males only, includes uncertain genotype, Total 33) was 9. For the same compound, the “PR + CR (positive response), row %” value [1, 6] was 62.5%, the “PR + CR, number of patients” value [1, 6] was 35 and the “PR + CR (positive response), row %” value [1, 7] was 68.2%. The “PR + CR, number of patients” value [1, 7] was 15, the “PR + CR (positive response), row %” value [1, 8] was 58.8% and the “PR + CR, number of patients” value [1, 8] was 20. The “PR + CR (positive response), row %” value [1, 9] was 53.3%, the “PR + CR, number of patients” value [1, 9] was 8 and the “PR + CR (positive response), row %” value [1, 10] was 42.9%. The “PR + CR, number of patients” value [1, 10] was 3, the “PR + CR (positive response), row %” value [1, 11] was 62.5% and the “PR + CR, number of patients” value [1, 11] was 5. For the same compound, the “PR + CR (positive response), row %” value [1, 12] was 65.9%, the “PR + CR, number of patients” value [1, 12] was 27 and the “PR + CR (positive response), row %” value [1, 13] was 80.0%. For the same compound, the “PR + CR, number of patients” value [1, 13] was 12, the “PR + CR (positive response), row %” value [1, 14] was 57.7% and the “PR + CR, number of patients” value [1, 14] was 15. For the same compound, the “PR + CR (positive response), row %” value [1, 15] was 39.1%, the “PR + CR, number of patients” value [1, 15] was 9 and the “PR + CR (positive response), row %” value [1, 16] was 50.0%. For the same compound, the “PR + CR, number of patients” value [1, 16] was 5, the “PR + CR (positive response), row %” value [1, 17] was 30.8% and the “PR + CR, number of patients” value [1, 17] was 4. For the same compound, the “PR + CR (positive response), row %” value ([1]; males only, includes uncertain genotype, Total 33) was 27.3%, the “PR + CR, number of patients” value ([1]; whole cohort, both sexes, no exclusions, Total 107) was 53 and the “therapeutic responses, outcomes stratified to IDO2 genotype” value ([1]; in combination with gemcitabine in PDAC patients, patients harboring functional IDO2 alleles, initial cohort) was “trend in improved therapeutic responses”. For the same compound, the “more frequent response than the expected population” value (melanoma; female cohort, patients with the +/+ or +/p alleles) was 41%, the “less frequent response than the expected population” value (melanoma; female patients without the active allele (p/p)) was 70% and the overall survival (melanoma; inactive IDO2 genetic configuration, adjuvant radiotherapy including treatment with indoximod) was “extended overall survival”. For the same compound, the “therapeutic responses after deletion of the IDO2 gene” value (rheumatoid arthritis) was “ablate therapeutic responses”.
